Data on 38 compounds can be found in patent EP0485890A2, “Use of 2,3-disubstituate 1-azolyl-propane for inhibiting the pathogenic growth phase of dimorph yeast cell” (HOECHST AKTIENGESELLSCHAFT, priority 1990, dated 1992).

The structures appear in SMILES notation. Converted amounts (≈) assume the structure as drawn.

In test [1] the test system is Lysophospholipase (Phospholipase B). The experiment in a line: In vitro enzyme test: inhibition of released exoenzymes (phospholipase) of Candida albicans blastoconidia on egg-yolk agar. It is filed as cell-based. To be noted: Candida albicans Stamm 200/175. An excerpt:
Als Beispiel für die Hemmung der pathogenen Phase dimorpher Hefezellen werden Ergebnisse eines in-vitro-Enzymtests angeführt, in welchen die prozentuale Hemmung freigesetzter Exoenzyme, insbesondere freigesetzter Lysophospholipase (Phospholipase B), als Maß für die Wirksamkeit bestimmt wird.
Zur Feststellung der Enzymhemmung wurde eine Suspension von Candida albicans Blastokonidien (Stamm 200/175), wobei die Keimdichte photometrisch auf eine Extinktion von 0,5 (500 nm) eingestellt war, mit Präparatelösung bzw. zur Kontrolle mit Lösungsmittellösung vermischt und zwar • a) 100 ul Präparatelösung (Suspension) • + 900 µl Keimsuspension • b) 100 µl Lösungsmittel • + 900 µl Keimsuspension • Jeweils 5 µl der 30 min bei 21 ° C inkubierten Blastokonidiensuspension wurden auf eine Agarplatte (Sabourand Agar mit Zusatz von 8 % Eigelb, 1 M NaCI, 5 mM CaC12) aufgetropft. • Die so beimpfte Platte wurde 3 Tage bei 37 ° C bebrütet.
Die Auswertung erfolgte derart, daß • 1. der Durchmesser (mm) der Candida albicans-Kolonie (behandelt und unbehandelt) sowie • 2. der Gesamtdurchmesser von Kolonie und Trübungshof, welcher durch Exoenzyme verursacht wurde (behandelt und unbehandelt) bestimmt wurde.
Aus der Bestimmung des Quotienten von Präparate- und Kontrollgruppe ergab sich ein Wert, der als Maß für die Enzymaktivität anzusehen war.

Another test deals with Candida albicans. The experiment in a line: Minimal inhibitory concentration (MHK) in vitro. It is filed as cell-based. To be noted: read-out: MHK von Candida albicans. An excerpt: Außerdem wird deutlich, daß zur Erreichung einer ausgeprägten Hemmwirkung der Phospholipase-Aktivität Dosen ausreichen, die deutlich unterhalb derjenigen liegen, die zur Hemmung des Pilzwachstums in vitro nötig sind und welche bisher für eine reine antimykotische Therapie als unbedingt erforderlich erachtet wurden (sihe MHK-Werte von Candida albicans einiger ausgewählter Derivate).

`CCN(CC(Cn1ccnc1)OCC=C(C)CCC=C(C)C)c1ccc(Cl)cc1` (stereo not drawn) [1.1]: the “% Hemmung der Phospholipase” value is on record as 15% in test [1] (Konzentration 1 µg/ml), 60% in test [1] (Konzentration 5 µg/ml) and 100% in test [1] (Konzentration 10 µg/ml). Further, the MIC with Candida albicans was over 125 µg/mL.

As for `CCN(CC(Cn1ccnc1)OCc1ccc(Cl)cc1)c1ccc(Cl)cc1` (stereo not drawn) [1.2], in test [1] (Konzentration 50 µg/ml), the “% Hemmung der Phospholipase” value is 90%.

On to `CC(C)N(CC(Cn1ccnc1)OCc1ccc(Cl)cc1)c1ccc(Cl)c(Cl)c1` (stereo not drawn) [1.3], for which the “% Hemmung der Phospholipase” value turned out to be 25% in test [1] (Konzentration 10 µg/ml) and 100% in test [1] (Konzentration 50 µg/ml). The MIC with Candida albicans was determined as 125 µg/mL (≈ 276 µM).

With `Clc1ccc(COC(CN2CCN(c3ccc(Cl)cc3)CC2)Cn2ccnc2)cc1` (stereo not drawn) [1.4], the “% Hemmung der Phospholipase” value in test [1] (Konzentration 50 µg/ml) was found to be 100%.

Consider `OC(CN(Cc1ccc(Cl)cc1)c1ccc(Cl)cc1)Cn1ccnc1` (stereo not drawn) [1.5], for which the “% Hemmung der Phospholipase” value in test [1] (Konzentration 50 µg/ml) stood at 100%.

With `COC(CN(Cc1ccc(Cl)cc1)c1ccc(Cl)cc1)Cn1ccnc1` (stereo not drawn) [1.6], the “% Hemmung der Phospholipase” value in test [1] (Konzentration 50 µg/ml) came to 100%.

Consider `OC(CN(Cc1ccc(Cl)cc1)Cc1ccc(Cl)cc1)Cn1ccnc1` (stereo not drawn) [1.8], for which, in test [1] (Konzentration 50 µg/ml), the “% Hemmung der Phospholipase” value amounted to 100%.

As to `Clc1ccc(OCC(Cn2ccnc2)N2CCN(c3ccccc3)CC2)cc1` (stereo not drawn) [1.9], the “% Hemmung der Phospholipase” value in test [1] (Konzentration 50 µg/ml) came out at 100%.

As to `Clc1ccc(SC(COc2ccc(Cl)cc2Cl)Cn2ccnc2)cc1` (stereo not drawn) [1.10], the “% Hemmung der Phospholipase” value in test [1] (Konzentration 50 µg/ml) is listed as 50%.

In the case of `Clc1ccc(N2CCN(C(COc3ccc(Cl)cc3Cl)Cn3ccnc3)CC2)cc1` (stereo not drawn) [1.11], the “% Hemmung der Phospholipase” value in test [1] (Konzentration 50 µg/ml) came out at 100%.

Regarding `CN(CC(Cn1ccnc1)OCc1ccc(Cl)cc1Cl)c1ccc(Cl)cc1` (stereo not drawn) [1.12], the “% Hemmung der Phospholipase” value in test [1] (Konzentration 50 µg/ml) is listed as 100%.

Turning to `Clc1ccc(COC(CNc2ccc(Cl)cc2)Cn2ccnc2)cc1` (stereo not drawn) [1.13], the figures for the “% Hemmung der Phospholipase” value in test [1] (Konzentration 50 µg/ml) and in test [1] (Konzentration 100 µg/ml) were 26% and 33%, respectively.

Regarding `CCN(CC(Cn1ccnc1)OCc1ccc(Cl)cc1)c1ccc(Cl)c(Cl)c1` (stereo not drawn) [1.14], the “% Hemmung der Phospholipase” value in test [1] (Konzentration 50 µg/ml) is reported as 30%; in test [1] (Konzentration 100 µg/ml), 100%.

As to `CCN(CC(Cn1ccnc1)Sc1ccc(Cl)cc1)c1ccc(Cl)c(Cl)c1` (stereo not drawn) [1.15], in test [1] (Konzentration 50 µg/ml), the “% Hemmung der Phospholipase” value is on record as 100%. For the same compound, the MIC with Candida albicans turned out to be 125 µg/mL (≈ 284 µM).

Regarding `CCN(CC(Cn1ccnc1)OCc1ccc(Cl)cc1Cl)c1ccc(Cl)c(Cl)c1` (stereo not drawn) [1.16], the “% Hemmung der Phospholipase” value in test [1] (Konzentration 50 µg/ml) was determined as 100%. The MIC in the test on Candida albicans came to 125 µg/mL (≈ 264 µM).

As for `CCN(CC(Cn1ccnc1)OCc1ccc(Cl)cc1)c1cccc(C(F)(F)F)c1` (stereo not drawn) [1.17], the results for the “% Hemmung der Phospholipase” value in test [1] (Konzentration 50 µg/ml) and in test [1] (Konzentration 100 µg/ml) were 12% and 38%, respectively.

For the compound `CCN(CC(Cn1ccnc1)OCc1ccc(Cl)cc1)c1ccc(Cl)cc1Cl` (stereo not drawn) [1.18], the “% Hemmung der Phospholipase” value in test [1] (Konzentration 50 µg/ml) is 60%.

For `CCN(CC(Cn1ccnc1)SCc1ccc(Cl)cc1)c1cccc(C(F)(F)F)c1` (stereo not drawn) [1.19], the “% Hemmung der Phospholipase” value in test [1] (Konzentration 50 µg/ml) is recorded as 71,4%. Besides, the MIC in the test with Candida albicans worked out at 125 µg/mL (≈ 275 µM).

`Clc1ccc(N2CCN(C(COCc3ccc(Cl)cc3Cl)Cn3ccnc3)CC2)cc1` (stereo not drawn) [1.20]: the “% Hemmung der Phospholipase” value in test [1] (Konzentration 50 µg/ml) is reported as 100%.

Take `CCN(CC(Cn1ccnc1)OCc1cccc(Cl)c1)c1ccc(Cl)cc1` (stereo not drawn) [1.21]: the “% Hemmung der Phospholipase” value is reported as 12,7% in test [1] (Konzentration 10 µg/ml) and 50% in test [1] (Konzentration 50 µg/ml). The MIC with Candida albicans worked out at 125 µg/mL (≈ 309 µM).

Turning to `CCN(CC(Cn1ccnc1)OCc1ccc(Cl)cc1Cl)c1ccc(Cl)cc1` (stereo not drawn) [1.22], the “% Hemmung der Phospholipase” value is on record as 23,1% in test [1] (Konzentration 10 µg/ml) and 100% in test [1] (Konzentration 50 µg/ml). The MIC with Candida albicans was 125 µg/mL (≈ 285 µM).

Turning to `CC(=NOCC(Cn1ccnc1)OCc1ccc(Cl)cc1Cl)c1ccc(Cl)cc1` (stereo not drawn) [1.23], the results for the “% Hemmung der Phospholipase” value in test [1] (Konzentration 10 µg/ml) and in test [1] (Konzentration 50 µg/ml) were 35,7% and 100%, respectively.

`CC(=NOCC(Cn1ccnc1)OCc1ccc(Cl)cc1)c1ccc(Cl)cc1` (stereo not drawn) [1.24]: the entries for the “% Hemmung der Phospholipase” value in test [1] (Konzentration 10 µg/ml) and in test [1] (Konzentration 50 µg/ml) were 24,3% and 50%, respectively.

For `CCN(CC(Cn1ccnc1)OCc1ccc(Cl)cc1)c1cccc(Cl)c1` (stereo not drawn) [1.25], the “% Hemmung der Phospholipase” value in test [1] (Konzentration 10 µg/ml) was 27,3%; in test [1] (Konzentration 50 µg/ml), 60%.

Take `CC(=NOCC(Cn1ccnc1)Sc1ccc(Cl)cc1)c1ccc(Cl)cc1` (stereo not drawn) [1.26]: the “% Hemmung der Phospholipase” value in test [1] (Konzentration 10 µg/ml) was determined as 50%; in test [1] (Konzentration 50 µg/ml) it was 90%.

`CCN(CC(Cn1ccnc1)OCc1ccc(Cl)cc1Cl)c1cccc(Cl)c1` (stereo not drawn) [1.28]: the “% Hemmung der Phospholipase” value in test [1] (Konzentration 50 µg/ml) is given as 61,5%; in test [1] (Konzentration 100 µg/ml) it was 100%. Further, the MIC in the test on Candida albicans was determined as 125 µg/mL (≈ 285 µM).

Regarding `CC(=NOCC(Cn1ccnc1)OCc1ccc(Cl)cc1)c1ccc(Cl)cc1Cl` (stereo not drawn) [1.29], the “% Hemmung der Phospholipase” value in test [1] (Konzentration 10 µg/ml) is reported as 20,6%; in test [1] (Konzentration 50 µg/ml), 100%.

Take `Clc1ccc(CN2CCN(C(COc3ccc(Cl)cc3Cl)Cn3ccnc3)CC2)cc1` (stereo not drawn) [1.30]: in test [1] (Konzentration 50 µg/ml), the “% Hemmung der Phospholipase” value is listed as 100%.

As for `Clc1ccc(OCC(Cn2ccnc2)N2CCN(Cc3ccc(Cl)cc3Cl)CC2)cc1` (stereo not drawn) [1.31], the “% Hemmung der Phospholipase” value in test [1] (Konzentration 50 µg/ml) is 38,6%; in test [1] (Konzentration 100 µg/ml), 90%.

For `CC(=NOCC(Cn1ccnc1)OCc1ccc(Cl)cc1Cl)c1ccc(Cl)cc1Cl` (stereo not drawn) [1.32], the figures for the “% Hemmung der Phospholipase” value in test [1] (Konzentration 10 µg/ml) and in test [1] (Konzentration 50 µg/ml) were 18,2% and 100%, respectively. Moreover, the MIC in the test on Candida albicans was 125 µg/mL (≈ 257 µM).

Regarding `CCCCN(CC(Cn1ccnc1)OCc1ccc(Cl)cc1)c1ccc(Cl)cc1` (stereo not drawn) [1.33], the “% Hemmung der Phospholipase” value in test [1] (Konzentration 10 µg/ml) was 24%; in test [1] (Konzentration 50 µg/ml), 80%. Further, the MIC in the test with Candida albicans is 125 µg/mL (≈ 289 µM).

As to `C=CCN(CC(Cn1ccnc1)OCc1ccc(Cl)cc1)c1ccc(Cl)cc1` (stereo not drawn) [1.34], the “% Hemmung der Phospholipase” value in test [1] (Konzentration 10 µg/ml) is 10,7%; in test [1] (Konzentration 50 µg/ml), 100%.

Consider `CCCCCCCCN(CC(Cn1ccnc1)OCc1ccc(Cl)cc1)c1ccc(Cl)cc1` (stereo not drawn) [1.35], for which the “% Hemmung der Phospholipase” value in test [1] (Konzentration 10 µg/ml) is listed as 45%; in test [1] (Konzentration 50 µg/ml) it was 100%. Further, the MIC with Candida albicans was over 125 µg/mL.

For the compound `COC(CN(Cc1ccc(Cl)cc1Cl)c1ccc(Cl)cc1)Cn1ccnc1` (stereo not drawn) [1.37], in test [1] (Konzentration 10 µg/ml), the “% Hemmung der Phospholipase” value is reported as 16,7%.

Regarding `CCCCCCCCOC(CN(CC)c1ccc(Cl)cc1)Cn1ccnc1` (stereo not drawn) [1.40], the entries for the “% Hemmung der Phospholipase” value in test [1] (Konzentration 10 µg/ml) and in test [1] (Konzentration 50 µg/ml) were 75,0% and 100%, respectively. Moreover, the MIC with Candida albicans turned out to be 125 µg/mL (≈ 319 µM).

In the case of `CCN(CC(O)Cn1ccnc1)c1ccc(Cl)c(Cl)c1` (stereo not drawn) [1.41], the figures for the “% Hemmung der Phospholipase” value in test [1] (Konzentration 10 µg/ml) and in test [1] (Konzentration 50 µg/ml) were 33,3% and 100%, respectively.

On to `Clc1ccc(COC(CN2CCCc3ccccc32)Cn2ccnc2)c(Cl)c1` (stereo not drawn) [1.42], for which, in test [1] (Konzentration 50 µg/ml), the “% Hemmung der Phospholipase” value is listed as 100%.

On to `Clc1ccc(COC(CN2CCCc3ccccc32)Cn2ccnc2)cc1` (stereo not drawn) [1.43], for which the “% Hemmung der Phospholipase” value in test [1] (Konzentration 10 µg/ml) was determined as 50%; in test [1] (Konzentration 50 µg/ml), 100%.
